What is called IC50 is the concentration that inhibits the measured activity by half. As usually defined, the AC50 is the concentration at which the activity in the assay is half-maximal. One may read the EC50 as the concentration at which the effect is half-maximal.

Active and inactive are the calls of the source.

Our source for the IC50, AC50 and EC50 values is ChEMBL document CHEMBL1201862, “PubChem BioAssay data set” (2004).

In one series the target is SUMO-activating enzyme (Homo sapiens, UniProt Q9UBT2). As to the kind of experiment: blockers of UBC9-mediated SUMO conjugation – biochemical, AlphaScreen, SUMOylation inhibitor project, confirmation (AID 2018). Type of series: functional. (In general: In Alpha technology, singlet oxygen from a donor bead excites a nearby acceptor bead.)
Another series deals with Cytochrome P450 2D6 (Homo sapiens, UniProt P10635).
For series [1], the system named is HEK293. As to the kind of experiment: inhibition of NOD1-driven NF-kB reporter – cell-based, luminescence, uHTS, primary screen (AID 1578). In kind it is functional. As to conditions: Homo sapiens.
The target in series [2] is T1, Nucleotide-binding oligomerization domain-containing protein 1 (Homo sapiens, UniProt Q9Y239).
T1 sequence (Q9Y239 whole entry): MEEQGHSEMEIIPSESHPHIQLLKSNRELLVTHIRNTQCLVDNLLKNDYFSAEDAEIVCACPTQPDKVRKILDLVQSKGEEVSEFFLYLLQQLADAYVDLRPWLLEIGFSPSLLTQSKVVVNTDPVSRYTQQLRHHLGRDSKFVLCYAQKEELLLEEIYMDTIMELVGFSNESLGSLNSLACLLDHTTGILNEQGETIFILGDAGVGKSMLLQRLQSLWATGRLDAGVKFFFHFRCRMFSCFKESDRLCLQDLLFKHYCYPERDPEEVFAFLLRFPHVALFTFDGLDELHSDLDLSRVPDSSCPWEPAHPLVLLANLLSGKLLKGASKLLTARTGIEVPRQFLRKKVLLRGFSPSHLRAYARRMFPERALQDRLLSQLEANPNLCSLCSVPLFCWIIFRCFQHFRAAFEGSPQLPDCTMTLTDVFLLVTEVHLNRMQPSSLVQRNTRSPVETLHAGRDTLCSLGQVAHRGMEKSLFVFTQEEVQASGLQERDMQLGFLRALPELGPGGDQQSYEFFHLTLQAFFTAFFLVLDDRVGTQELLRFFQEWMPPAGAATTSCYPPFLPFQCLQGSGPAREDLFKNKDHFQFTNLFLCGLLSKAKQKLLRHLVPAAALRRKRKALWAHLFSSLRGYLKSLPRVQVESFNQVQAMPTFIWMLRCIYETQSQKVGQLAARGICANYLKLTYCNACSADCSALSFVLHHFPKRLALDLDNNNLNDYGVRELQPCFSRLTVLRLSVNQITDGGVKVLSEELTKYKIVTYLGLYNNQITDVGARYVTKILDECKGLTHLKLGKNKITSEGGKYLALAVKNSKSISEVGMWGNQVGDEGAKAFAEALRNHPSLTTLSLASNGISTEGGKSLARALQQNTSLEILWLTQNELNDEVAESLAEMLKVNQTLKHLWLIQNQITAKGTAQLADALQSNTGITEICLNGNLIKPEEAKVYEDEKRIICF
As to the kind of experiment: blockers of NOD1 pathway activity – revised, SAR follow-up (AID 2333). Type of series: functional.

For series [3], the system named is HEK293. As to the kind of experiment: cells. Type of series: functional, cell-based. The conditions noted are these: Homo sapiens.
The subject of series [4] is HEK293. In words: NOD2 signaling inhibitors in MDP-stimulated cells, cell-based, uHTS, luminescence (AID 2001). As to conditions: Homo sapiens. Type of series: functional.
Series [5] concerns HEK293. As to the kind of experiment: cells. The conditions noted are these: Homo sapiens.
For series [6], the system named is HEK293. In words: cells. Type of series: functional, cell-based. As to conditions: Homo sapiens. The source holds these as a separate data set.
Series [7] deals with Nucleotide-binding oligomerization domain-containing protein 2 (Homo sapiens, UniProt Q9HC29). As to the kind of experiment: inhibition of NOD2-driven NF-kB reporter – cell-based, luminescence, uHTS, HEK293 (AID 1566). In kind it is functional.
For a further series, the target named is Tumor necrosis factor (Homo sapiens, UniProt P01375). In words: analog potency on TNFa NF-kB signaling – cell-based, revised, SAR follow-up (AID 2337). Type of series: functional.
Series [8] relates to HEK293. In words: cells. In kind it is functional, cell-based. As to conditions: Homo sapiens. The source holds these as a separate data set.
A short description of series [9]: blockers of bursicon-stimulated LGR2 cAMP reporter – cell-based, HEK293, CRE-luciferase reporter, cherry pick, set 2, dose response (AID 743343).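 Also: transfected cells were stimulated with diluted bursicon conditioned medium after compound addition.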 In kind it is functional. For orientation: A reporter such as luciferase makes a cellular process visible.
Series [10] can be described thus: blockade of melanocortin 4 receptor signaling – cell-based, plate reader, cherry pick, counter-screen for LGR2 antagonist project, dose response (AID 743444).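 Also: transfected HEK 293 cells stimulated with alpha-MSH peptide; potency of inhibitors of the alpha-MSH evoked signal.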 In kind it is functional.
For another series, the target named is Cytochrome P450 2C19 (Homo sapiens, UniProt P33261). In words: Cytochrome panel assay with activity outcomes. Panel member name: p450-cyp2c19 Compounds with AC50 equal or less than 10 uM are considered active. In kind it is functional. As to conditions: read-out: AC50.
Series [11] in a line: NIH3T3 cell viability loss – ATP luminescence, mouse fibroblasts, counter-screen, dose response (AID 2010).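 Also: cells exposed to compound for about 90 hours before reading.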 Type of series: functional, cell-based. For orientation: A counterscreen serves to expose hits that act by an unwanted route or on another target.
The target of series [12] is T2, Ubiquitin-conjugating enzyme E2 N (Homo sapiens, UniProt P61088).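 Also: Dose-response confirmation in a TR-FRET assay detecting UBC13-driven polyubiquitin chain formation, inhibition measured.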
T2 sequence (P61088 whole entry): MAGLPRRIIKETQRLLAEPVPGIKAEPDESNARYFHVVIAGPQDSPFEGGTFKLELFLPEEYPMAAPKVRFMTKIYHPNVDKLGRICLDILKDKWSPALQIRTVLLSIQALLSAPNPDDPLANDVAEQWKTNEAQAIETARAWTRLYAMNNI
Type of series: functional.

Series [13] concerns the target T3, DNA repair protein RAD52 homolog (Homo sapiens, UniProt P43351).
T3 sequence (P43351 whole entry): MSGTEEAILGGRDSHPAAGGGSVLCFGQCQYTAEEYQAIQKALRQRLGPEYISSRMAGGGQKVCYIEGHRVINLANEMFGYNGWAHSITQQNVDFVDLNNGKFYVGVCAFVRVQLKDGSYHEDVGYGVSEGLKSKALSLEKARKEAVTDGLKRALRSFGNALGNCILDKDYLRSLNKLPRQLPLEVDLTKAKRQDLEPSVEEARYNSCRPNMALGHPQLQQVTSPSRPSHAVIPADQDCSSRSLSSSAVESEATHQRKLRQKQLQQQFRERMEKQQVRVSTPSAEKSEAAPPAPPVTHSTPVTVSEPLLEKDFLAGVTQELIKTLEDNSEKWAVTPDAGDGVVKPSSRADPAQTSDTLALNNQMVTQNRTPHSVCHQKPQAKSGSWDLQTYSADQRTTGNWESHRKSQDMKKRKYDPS
In kind it is functional, biochemical.

A short description of series [14]: Luminescence Cell-Based Dose Retest to Confirm Inhibitors of Cancer Stem Cells. [Related pubchem assays (depositor defined):AID2717, AID2721]. The conditions noted are these: Homo sapiens. In kind it is functional.
A short description of series [15]: Trypanosoma cruzi growth suppression in host cells – NIH3T3 host cells, beta-gal luminescence, confirmation (AID 2044).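 Also: intracellular parasites grown in NIH/3T3 mouse fibroblasts as host cells; luminescent beta-galactosidase reporter signal from transgenic T. cruzi replicating inside host cells; inhibitors lower the luminescence signal.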 Type of series: functional, cell-based.
Series [16] deals with T4, COUP transcription factor 2 (Homo sapiens, UniProt P24468).
T4 sequence (P24468 whole entry): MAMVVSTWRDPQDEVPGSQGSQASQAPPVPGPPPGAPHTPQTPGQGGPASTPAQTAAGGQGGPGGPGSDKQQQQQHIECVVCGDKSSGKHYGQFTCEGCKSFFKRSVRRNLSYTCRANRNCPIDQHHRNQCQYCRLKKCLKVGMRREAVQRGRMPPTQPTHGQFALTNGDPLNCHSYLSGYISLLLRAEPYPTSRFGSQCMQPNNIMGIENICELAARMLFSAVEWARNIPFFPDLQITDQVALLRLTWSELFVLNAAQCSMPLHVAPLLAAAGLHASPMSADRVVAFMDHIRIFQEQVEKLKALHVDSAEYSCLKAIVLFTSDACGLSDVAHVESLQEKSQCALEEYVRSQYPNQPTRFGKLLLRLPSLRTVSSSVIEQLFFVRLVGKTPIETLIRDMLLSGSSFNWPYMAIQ
In words: Luminescence-based cell-based high throughput dose response assay to identify inhibitors of COUP-TFII (NR2F2). In kind it is functional.

The nature of series [17]: non-specific 3'UTR reporter inhibition in Clone20-Shn3RL – cell-based, Renilla luciferase, cherry-picked, counter-screen for Shn3 inhibitor project, dose response (AID 624133). In kind it is functional.
A short description of series [18]: reduction of Shn3 3'UTR-driven luciferase in osteoblasts – cell-based, Clone20 osteoblasts, firefly luciferase, cherry-picked, dose response (AID 624132).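 Also: firefly luciferase luminescence from reporter carrying the Shn3 3'UTR in osteoblasts.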 Type of series: functional.
For a further series, the system named is INS1. As to the kind of experiment: INS-1E survival protection against cytokine death – cell-based, luminescence, retest, dose response (AID 449756).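 Also: cell death triggered by IL-1 beta plus TNF-alpha plus IFN-gamma mixture; protective hits raise ATP signal compared with cytokine alone wells.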 In kind it is functional. As to conditions: Rattus norvegicus.
The target in a further series is Cytochrome P450 2C9 (Homo sapiens, UniProt P11712).
Chain of Cytochrome P450 2C9 (P11712 whole entry): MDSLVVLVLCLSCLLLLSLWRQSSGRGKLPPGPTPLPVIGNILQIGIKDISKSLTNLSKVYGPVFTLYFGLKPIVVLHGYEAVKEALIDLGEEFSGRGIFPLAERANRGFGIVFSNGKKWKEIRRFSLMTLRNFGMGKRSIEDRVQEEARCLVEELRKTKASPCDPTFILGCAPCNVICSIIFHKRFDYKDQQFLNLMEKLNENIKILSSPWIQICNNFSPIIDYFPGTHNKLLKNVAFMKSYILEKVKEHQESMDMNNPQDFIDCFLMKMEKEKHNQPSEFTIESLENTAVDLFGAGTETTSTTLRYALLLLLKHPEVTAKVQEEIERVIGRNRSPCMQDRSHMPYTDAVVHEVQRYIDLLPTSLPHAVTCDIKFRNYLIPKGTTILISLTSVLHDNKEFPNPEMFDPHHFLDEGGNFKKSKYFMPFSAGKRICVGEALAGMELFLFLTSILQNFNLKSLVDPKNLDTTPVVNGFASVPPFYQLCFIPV

Chain of Cytochrome P450 2D6 (P10635 whole entry): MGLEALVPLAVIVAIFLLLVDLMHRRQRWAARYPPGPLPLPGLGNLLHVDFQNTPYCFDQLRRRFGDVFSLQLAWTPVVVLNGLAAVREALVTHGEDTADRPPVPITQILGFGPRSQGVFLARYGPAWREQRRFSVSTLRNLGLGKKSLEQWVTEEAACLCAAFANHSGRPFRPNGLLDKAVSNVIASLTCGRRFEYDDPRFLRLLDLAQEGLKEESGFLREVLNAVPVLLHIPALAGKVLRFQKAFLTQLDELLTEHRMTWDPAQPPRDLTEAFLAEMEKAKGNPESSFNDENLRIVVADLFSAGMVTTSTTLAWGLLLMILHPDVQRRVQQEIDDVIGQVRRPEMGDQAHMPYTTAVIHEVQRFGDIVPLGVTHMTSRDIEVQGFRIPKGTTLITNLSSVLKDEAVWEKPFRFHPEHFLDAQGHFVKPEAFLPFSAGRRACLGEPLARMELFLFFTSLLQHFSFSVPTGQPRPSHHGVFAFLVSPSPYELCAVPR
Chain of Tumor necrosis factor (P01375 whole entry): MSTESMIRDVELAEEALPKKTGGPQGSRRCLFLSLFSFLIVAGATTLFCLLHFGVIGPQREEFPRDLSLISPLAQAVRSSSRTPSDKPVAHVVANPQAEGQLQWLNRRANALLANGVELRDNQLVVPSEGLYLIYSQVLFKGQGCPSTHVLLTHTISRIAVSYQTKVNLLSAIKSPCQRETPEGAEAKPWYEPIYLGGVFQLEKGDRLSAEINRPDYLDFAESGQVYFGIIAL
Chain of SUMO-activating enzyme (Q9UBE0 whole entry): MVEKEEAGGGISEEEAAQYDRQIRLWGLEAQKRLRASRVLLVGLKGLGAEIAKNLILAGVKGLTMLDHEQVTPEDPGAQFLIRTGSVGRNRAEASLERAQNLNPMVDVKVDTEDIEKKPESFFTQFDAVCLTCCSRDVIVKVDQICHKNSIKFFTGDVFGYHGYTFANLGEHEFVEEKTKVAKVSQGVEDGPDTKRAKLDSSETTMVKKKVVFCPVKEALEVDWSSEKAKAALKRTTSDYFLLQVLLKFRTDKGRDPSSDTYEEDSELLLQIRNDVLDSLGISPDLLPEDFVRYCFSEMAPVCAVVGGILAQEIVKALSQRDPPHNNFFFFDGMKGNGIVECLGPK
Chain of SUMO-activating enzyme (Q9UBT2 whole entry): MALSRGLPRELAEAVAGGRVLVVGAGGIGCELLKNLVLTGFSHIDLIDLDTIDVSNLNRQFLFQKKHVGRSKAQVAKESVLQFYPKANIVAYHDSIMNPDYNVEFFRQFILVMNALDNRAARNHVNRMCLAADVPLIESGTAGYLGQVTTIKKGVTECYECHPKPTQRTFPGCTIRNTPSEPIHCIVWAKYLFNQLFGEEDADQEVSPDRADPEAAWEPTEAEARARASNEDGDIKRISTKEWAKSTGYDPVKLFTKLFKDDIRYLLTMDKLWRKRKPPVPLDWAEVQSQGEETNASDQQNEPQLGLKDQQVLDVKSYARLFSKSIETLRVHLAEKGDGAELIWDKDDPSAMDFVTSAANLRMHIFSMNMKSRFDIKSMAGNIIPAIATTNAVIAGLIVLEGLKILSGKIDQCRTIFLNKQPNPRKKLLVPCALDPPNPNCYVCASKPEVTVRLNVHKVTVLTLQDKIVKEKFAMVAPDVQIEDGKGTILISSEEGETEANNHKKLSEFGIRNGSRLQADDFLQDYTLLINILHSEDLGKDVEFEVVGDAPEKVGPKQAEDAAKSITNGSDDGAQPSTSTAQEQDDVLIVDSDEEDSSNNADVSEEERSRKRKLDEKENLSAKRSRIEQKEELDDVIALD
Chain of Cytochrome P450 2C19 (P33261 whole entry): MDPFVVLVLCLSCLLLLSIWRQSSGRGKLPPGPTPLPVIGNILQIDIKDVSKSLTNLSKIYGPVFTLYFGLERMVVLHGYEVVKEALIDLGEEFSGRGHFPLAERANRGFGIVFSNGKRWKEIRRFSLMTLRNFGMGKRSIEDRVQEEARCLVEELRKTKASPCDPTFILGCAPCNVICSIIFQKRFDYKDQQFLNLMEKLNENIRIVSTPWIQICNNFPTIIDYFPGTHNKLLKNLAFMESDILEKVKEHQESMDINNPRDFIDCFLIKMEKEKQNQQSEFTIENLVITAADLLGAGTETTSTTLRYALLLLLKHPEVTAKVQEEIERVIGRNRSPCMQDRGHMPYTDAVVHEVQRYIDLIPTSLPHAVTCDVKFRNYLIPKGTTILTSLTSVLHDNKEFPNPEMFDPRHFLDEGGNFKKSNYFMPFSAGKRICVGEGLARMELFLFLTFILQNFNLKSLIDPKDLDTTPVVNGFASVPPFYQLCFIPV
Chain of Nucleotide-binding oligomerization domain-containing protein 2 (Q9HC29 whole entry, the tested form may be a part): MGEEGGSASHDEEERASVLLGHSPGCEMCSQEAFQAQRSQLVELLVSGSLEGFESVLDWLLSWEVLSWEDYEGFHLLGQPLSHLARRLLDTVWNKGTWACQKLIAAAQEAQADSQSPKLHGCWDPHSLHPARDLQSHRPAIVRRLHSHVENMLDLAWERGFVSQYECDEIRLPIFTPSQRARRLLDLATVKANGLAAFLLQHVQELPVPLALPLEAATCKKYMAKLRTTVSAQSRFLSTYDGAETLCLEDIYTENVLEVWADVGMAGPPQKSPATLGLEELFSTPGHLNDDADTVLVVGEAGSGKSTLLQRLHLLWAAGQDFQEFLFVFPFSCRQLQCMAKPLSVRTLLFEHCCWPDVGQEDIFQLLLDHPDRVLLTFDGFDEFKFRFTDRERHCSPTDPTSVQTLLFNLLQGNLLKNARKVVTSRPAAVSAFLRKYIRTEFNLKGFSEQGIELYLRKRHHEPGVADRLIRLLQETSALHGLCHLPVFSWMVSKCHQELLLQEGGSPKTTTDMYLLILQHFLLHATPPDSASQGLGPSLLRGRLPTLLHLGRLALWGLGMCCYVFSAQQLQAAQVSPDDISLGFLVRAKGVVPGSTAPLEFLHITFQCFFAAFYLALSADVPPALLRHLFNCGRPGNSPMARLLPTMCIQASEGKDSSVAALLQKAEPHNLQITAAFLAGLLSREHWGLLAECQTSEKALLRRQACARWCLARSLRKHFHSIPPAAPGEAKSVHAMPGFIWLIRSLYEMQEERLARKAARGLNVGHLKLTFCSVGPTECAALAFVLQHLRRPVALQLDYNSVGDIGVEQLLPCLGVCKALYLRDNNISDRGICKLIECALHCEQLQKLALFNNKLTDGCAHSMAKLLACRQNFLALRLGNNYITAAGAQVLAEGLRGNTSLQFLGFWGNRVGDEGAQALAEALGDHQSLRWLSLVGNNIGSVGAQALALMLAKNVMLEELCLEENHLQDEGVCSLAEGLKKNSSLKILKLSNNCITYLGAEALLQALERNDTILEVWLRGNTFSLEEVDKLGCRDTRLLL

As for `Cc1cc(OC(C(=O)O)c2ccccc2)c2c(C)c(Cc3ccccc3)c(=O)oc2c1` (centres undefined), the IC50 on SUMO-activating enzyme is 41.3 µM (active).

As for `CC(C)[C@](N)(C(=O)O)c1ccccc1`, the AC50 result on Cytochrome P450 2D6 is “inconclusive”.

As to `O=C(c1ccc(S(=O)(=O)c2cccc(Cl)c2)c([N+](=O)[O-])c1)N1CCN(c2ccccn2)CC1`, the figures for the EC50 (in the series with HEK293 [1]; in series [7]) were 10.1 µM (active) and 12.3 µM (active), respectively. For the same compound, the IC50 in [2] is 1.4 µM (active); in the series on HEK293 [3], 10.4 µM (active); in the series on HEK293 [4], 1.95 µM (active); in the series on HEK293 [5], 8.21 µM (active); with HEK293 [6], 1.72 µM (active); at Tumor necrosis factor, 4.43 µM (active). Also, the IC50 in the series with HEK293 [8] was > 20 µM (inactive).

For `C=CCNc1nc(-c2cc3ccccc3o2)cs1`, the AC50 in [9] was 13.9 µM (active); in series [10] it was 15.2 µM (active).

Take `O=C(CCN1C(=O)C2C3C=CC(C3)C2C1=O)Nc1ccc2ncccc2c1` (centres undefined): the AC50 result on Cytochrome P450 2D6 is “inconclusive”; on Cytochrome P450 2C19 it was 20 µM (inconclusive).

Take `CO/N=C(/C)CCC(=O)OC[C@@H]1O[C@H](C#Cc2ccccc2)C=C[C@@H]1Oc1ccc(C)cc1`: the AC50 result on Cytochrome P450 2D6 is given as “inconclusive”.

In the case of `CCN1CCN(CCCNC(=O)c2ccc(/C=C3/Sc4ccccc4N(Cc4ccccc4F)C3=O)cc2)CC1`, the EC50 was 22.8 µM (active) in series [11] and 1.07 µM (active) in [15]. The IC50 in [12] is > 20 µM (inactive). For the same compound, the AC50 is 8.67 µM (active) in series [13] and 2.41 µM (active) in [14].

Regarding `Cc1cc(C(=O)NC2CCCc3c2cnn3-c2ccc(C)c(C)c2)n(C)n1` (centres undefined), the IC50 in [16] is > 0.117 µM (active); in series [2] it was 0.0431 µM (active); in the series with HEK293 [5], > 20 µM (inactive); on Tumor necrosis factor it was 0.0793 µM (active). In addition, the AC50 in series [17] is < 0.26 µM (active); in series [18], < 0.26 µM (active); with INS1 it was 0.24 µM (active).

As to `Cc1nn(-c2ccccc2)c2nc(C(Cl)(Cl)Cl)nc(O)c12`, the EC50 in the series with HEK293 [1] is 12.4 µM (active). Moreover, the IC50 is > 20 µM (inactive) in the series on HEK293 [3]; 17.9 µM (inactive) with HEK293 [4]; > 20 µM (inactive) in the series with HEK293 [5]; > 20 µM (inactive) in the series on HEK293 [6]; > 20 µM (inactive) in the series on HEK293 [8].

With `NC(=O)c1ccsc1NC(=O)COC(=O)Cc1cccc2ccccc12`, the IC50 in series [16] was 13.8 µM (inactive).

As to `CO[C@H]1COC(=O)[C@@H](Cc2ccccc2)NC(=O)[C@@H](C)COC(=O)CCC[C@@H]1C`, on Cytochrome P450 2D6, the AC50 result is given as “inconclusive”.

For the compound `CCN(CC)S(=O)(=O)c1cccc(NC(=O)COC(=O)c2[nH]c(C)c(C(C)=O)c2C)c1`, the IC50 in series [16] is 5.62 µM (active).

On to `C/C(=N/NC(=O)c1ccc(NC(=O)c2ccc(F)cc2)cc1)c1ccccc1`, for which the AC50 entry at Cytochrome P450 2D6 was “inconclusive”; on Cytochrome P450 2C9, 5.01 µM (inconclusive).
